Results on 1 molecule are retold here after PMC4760428 (Angewandte Chemie (International Ed. in English), 2016).

Peptide text beside a SMILES is read from it.

This assay addresses WT cyclophilin (Homo sapiens, UniProt P62937). Kind of assay: FRET equilibrium binding to wild-type cyclophilin.

WT cyclophilin, sequence (P62937 whole entry): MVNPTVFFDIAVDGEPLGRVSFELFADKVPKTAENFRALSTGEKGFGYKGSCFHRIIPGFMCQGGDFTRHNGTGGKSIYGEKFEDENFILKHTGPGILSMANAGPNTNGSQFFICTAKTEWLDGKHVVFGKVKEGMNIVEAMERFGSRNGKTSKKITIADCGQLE

Regarding `C[C@H](NS(=O)(=O)c1cccc2c(N(C)C)cccc12)C(=O)N[C@@H](C)C(=O)N1CCC[C@H]1C(=O)N[C@@H](Cc1ccccc1)C(=O)O` [WT peptide] (HELM PEPTIDE1{[CN(C)c1cccc2c(S(=O)(=O)[*:2])cccc12].A.A.P.F}$$$$V2.0), binding was put at a Kd of 164 ± 32 µM.

As a reminder, the Kd is the constant that tells how readily two partners part at equilibrium. Higher therefore signals a looser complex.
